These results are taken from US8188303B2, “Anti-malarial compound isolated from Gomphostema niveum” (The Director General, Defence Research and Development …, priority 2005, dated 2012).

Converted amounts (≈) assume the structure as drawn.

For one experiment, the system named is P. berghi. The experiment can be described thus: In-vivo anti-malarial activity. Further details: species or system Plasmodium berghi. The note with it: result in words.
For the next experiment, the system named is P. falciparum. The experiment can be described thus: In-vitro evaluation of anti-malarial activity (schizont maturation inhibition). The class given is cell-based, Plasmodium falciparum. The protocol:
Two strains of chloroquine sensitive strain and one strain of P. falciparum isolated from patients from Jagadalpur region of India and maintained in vitro. The cultures are maintained as per the standard culture procedures.
The parasites are growth in O +ve human RBCs with the addition of RPMI 1640 culture media with 10% Human serum as supplement. The cells are incubated at 37° C. at 5% CO2 atmosphere and the parasitemia is checked after 24 hrs and media changed. When parasitemia exceeded 10% parasitized cells the culture is subcultured with the addition of fresh RBC. The parasite growth is synchronized by the sorbitol lysis method and synchronized ring stage parasites are used for testing. The in-vitro testing is done in 100 μI complete media per well with the addition of 10 μI of erythrocytes with 2% of ring stages of parasites. All the tests are run in duplicates with in 96 well flat bottomed tissue culture plate and double dilutions are made for each of the test compound with individual control wells only with the RPMI 1640 and human serum supplement. The growth of the parasites in the presence of each of the test compound, chloroquine and control wells are monitored by the examination of the giemsa stained blood smears made after 24 hrs of incubation. The counting is done for the presence of mature schizsonts among 200 asexual parasites and the average schizont maturation inhibition is calculated by the formula (1−Nt/Nc)×100 where in Nt and Nc represent the number of schizont present in the test and control respectively. The IC 50 and IC 90 values are calculated by using the commercial statistical package Sigmastat.
As controls IC50 chloroquine and artether were also determined.

[1] abbreviates: schizont maturation inhibition, synchronized ring stage parasites in human RBCs, 24 hrs incubation.

For orientation: IC50 means the concentration needed to halve the response being measured. Lower therefore signals greater potency. What is called IC90 is the concentration at which the effect reaches the 90% level.

With `CC1=CC(=O)CC2C1(C)CCC(CO)C2(C)CCC1=CCOC1=O` (stereo not drawn) [Gomphostenin, 3-[2-(2-Hydroxymethyl-1,4a,5-trimethyl-7-oxo-1,2,3,4,4a,7 8,8a-octahydronaphthalen-1-yl)-ethyl]-5H-furan-2-one], in the experiment with P. berghi, the “inhibitory activity against P. berghi in-vivo” value is recorded as “significant inhibitory activity”. In the experiment with P. falciparum (in-vitro, result in words), the “inhibitory activity against P. falciparum in-vitro” value is “significant inhibitory activity”. Also, in the experiment on P. falciparum (setting [1]), the IC50 was determined as 8.23 µg/mL (≈ 24.8 µM) and the IC90 worked out at 24.29 µg/mL (≈ 73.1 µM).
As for `CCN(CC)CCCC(C)Nc1ccnc2cc(Cl)ccc12` (stereo not drawn) [Chloroquine, reference compound], in the experiment on P. falciparum (Plasmodium falciparum, 24 h), the 50% inhibitory concentration (IC50) worked out at 12.9 µg/mL (≈ 40.2 µM) and the IC90 worked out at 23.7 µg/mL (≈ 74.1 µM).
